Data reported in PubChem BioAssay (NCI).
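Tested at 5 concentrations; 48 h exposure; 96-well plates; endpoints linearly interpolated, else capped at highest concentration. TGI is the concentration that stops growth completely.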

Tests used:
Experiment in all cases: NCI-60 cell line screen, 48 h
786-0 renal = tested on: 786-0 renal
A498 renal = tested on: A498 renal
A549 NSCLC = tested on: A549 NSCLC
ACHN renal = tested on: ACHN renal
CAKI-1 renal = tested on: CAKI-1 renal
CCRF-CEM leukemia = tested on: CCRF-CEM leukemia
DLD-1 colon = tested on: DLD-1 colon
DMS 114 small cell lung = tested on: DMS 114 small cell lung
DMS 273 small cell lung = tested on: DMS 273 small cell lung
EKVX NSCLC = tested on: EKVX NSCLC
HCT-116 colon = tested on: HCT-116 colon
HL-60(TB) leukemia = tested on: HL-60(TB) leukemia
HOP-62 NSCLC = tested on: HOP-62 NSCLC
HOP-92 NSCLC = tested on: HOP-92 NSCLC
HT29 colon = tested on: HT29 colon
IGROV1 ovarian = tested on: IGROV1 ovarian
K-562 leukemia = tested on: K-562 leukemia
KM12 colon = tested on: KM12 colon
KM20L2 colon = tested on: KM20L2 colon
LXFL 529 NSCLC = tested on: LXFL 529 NSCLC
M14 melanoma = tested on: M14 melanoma
M19-MEL melanoma = tested on: M19-MEL melanoma
MOLT-4 leukemia = tested on: MOLT-4 leukemia
NCI-H226 lung = tested on: NCI-H226 lung
NCI-H23 lung = tested on: NCI-H23 lung
NCI-H460 lung = tested on: NCI-H460 lung
NCI-H522 lung = tested on: NCI-H522 lung
OVCAR-3 ovarian = tested on: OVCAR-3 ovarian
OVCAR-4 ovarian = tested on: OVCAR-4 ovarian
OVCAR-5 ovarian = tested on: OVCAR-5 ovarian
OVCAR-8 ovarian = tested on: OVCAR-8 ovarian
RXF 393 renal = tested on: RXF 393 renal
SF-268 CNS = tested on: SF-268 CNS
SF-295 CNS = tested on: SF-295 CNS
SF-539 CNS = tested on: SF-539 CNS
SK-MEL-2 melanoma = tested on: SK-MEL-2 melanoma
SK-MEL-28 melanoma = tested on: SK-MEL-28 melanoma
SK-MEL-5 melanoma = tested on: SK-MEL-5 melanoma
SK-OV-3 ovarian = tested on: SK-OV-3 ovarian
SN12C renal = tested on: SN12C renal
SNB-19 CNS = tested on: SNB-19 CNS
SNB-75 CNS = tested on: SNB-75 CNS
SNB-78 CNS = tested on: SNB-78 CNS
SR leukemia = tested on: SR leukemia
SW-620 colon = tested on: SW-620 colon
TK-10 renal = tested on: TK-10 renal
U251 CNS = tested on: U251 CNS
UACC-257 melanoma = tested on: UACC-257 melanoma
UACC-62 melanoma = tested on: UACC-62 melanoma
UO-31 renal = tested on: UO-31 renal
XF 498 CNS = tested on: XF 498 CNS
LOX IMVI melanoma = tested on: LOX IMVI melanoma
MALME-3M melanoma = tested on: MALME-3M melanoma
COLO 205 colon = tested on: COLO 205 colon
HCC-2998 colon = tested on: HCC-2998 colon
HCT-15 colon = tested on: HCT-15 colon
HOP-18 NSCLC = tested on: HOP-18 NSCLC
RPMI-8226 leukemia = tested on: RPMI-8226 leukemia

Measured: TGI

O=C1c2cc3c(cc2[C@@H]2NC4CCCC14O2)OCO3 (some centres undefined)
not listed: LOX IMVI melanoma | MALME-3M melanoma | COLO 205 colon | HCC-2998 colon | HCT-15 colon | HOP-18 NSCLC | RPMI-8226 leukemia
> 100 µM: all other assays above

COc1cc(OC)c(C#N)c(OC)c1C
not listed: HCT-116 colon | IGROV1 ovarian | M14 melanoma | NCI-H522 lung | OVCAR-3 ovarian | SNB-75 CNS | COLO 205 colon | HCC-2998 colon | HCT-15 colon | HOP-18 NSCLC | RPMI-8226 leukemia
> 100 µM: all other assays above

O=C1C2=C(CCCC2)Nc2cccc3ncn1c23
not listed: CAKI-1 renal | HT29 colon | IGROV1 ovarian | NCI-H226 lung | OVCAR-4 ovarian | SNB-75 CNS | XF 498 CNS
> 100 µM: all other assays above
